# Laboratory results from PubChem BioAssay AID330 (DTP/NCI, 2004).
# Where “and” joins values, the source holds several entries; their conditions need not be identical. Equal entries are not always repeated. Toxic doses and inconclusive results are not listed.
# Test system: P388 leukemia ip, CD2F1 mice, survival T/C
# Assay: NCI In Vivo Anticancer Drug Screen. Data for tumor model P388 Leukemia (intraperitoneal) in CD2F1 (CDF1) mice
# Settings: endpoint: median survival time, higher = longer survival
# Procedure, shortened: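 Mice carrying the transplanted tumor received test compound or vehicle. Survival was recorded in each group, and the value is the treated-group measurement divided by that of the vehicle-treated control group.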
# [1] = dose: 3.13 mg/kg/injection, schedule: Q01DX009 (ip), vehicle: saline with Tween-80
# [2] = dose: 6.25 mg/kg/injection, schedule: Q01DX009 (ip), vehicle: saline with Tween-80
# [3] = dose: 12.5 mg/kg/injection, schedule: Q01DX009 (ip), vehicle: saline with Tween-80
# [4] = dose: 50.0 mg/kg/injection, schedule: Q04DX003 (ip), vehicle: saline with Tween-80
# [5] = dose: 50.0 mg/kg/injection, schedule: Q01DX009 (ip), vehicle: saline
# [6] = dose: 100.0 mg/kg/injection, schedule: Q01DX009 (ip), vehicle: saline
# [7] = dose: 25.0 mg/kg/injection, schedule: Q01DX009 (ip), vehicle: saline with Tween-80
# [8] = dose: 50.0 mg/kg/injection, schedule: Q01DX009 (ip), vehicle: saline with Tween-80
# [9] = dose: 50.0 mg/kg/injection, schedule: Q01DX005 (ip), vehicle: Klucel (hydroxypropylcellulose) (HPC)
# [10] = dose: 12.5 mg/kg/injection, schedule: Q01DX005 (ip), vehicle: saline with Tween-80
# [11] = dose: 25.0 mg/kg/injection, schedule: Q01DX005 (ip), vehicle: saline with Tween-80
# [12] = dose: 50.0 mg/kg/injection, schedule: Q01DX005 (ip), vehicle: saline with Tween-80
# [13] = dose: 60.0 mg/kg/injection, schedule: Q01DX005 (ip), vehicle: saline with Tween-80
# [14] = dose: 120.0 mg/kg/injection, schedule: Q01DX005 (ip), vehicle: saline with Tween-80
# [15] = dose: 100.0 mg/kg/injection, schedule: Q01DX005 (ip), vehicle: Klucel (hydroxypropylcellulose) (HPC)
# [16] = dose: 200.0 mg/kg/injection, schedule: Q01DX005 (ip), vehicle: Klucel (hydroxypropylcellulose) (HPC)
smiles,measurement,setting,value
CCN=C(N)Nc1ccc(NC(=O)c2ccc(C(=O)Nc3ccc(NC(N)=NCC)cc3)cc2)cc1,T/C,[1],163 % of control
same,T/C,"dose: 3.13 mg/kg/injection, schedule: Q04DX003 (ip), vehicle: saline with Tween-80",113 % of control
same,T/C,[2],168 % of control
same,T/C,"dose: 6.25 mg/kg/injection, schedule: Q04DX003 (ip), vehicle: saline with Tween-80",122 % of control
same,T/C,[3],109 % of control and 113 % of control
same,T/C,"dose: 25.0 mg/kg/injection, schedule: Q04DX003 (ip), vehicle: saline with Tween-80",200 % of control
same,T/C,[4],181 % of control
C[C@H]1C(=O)CCC2[C@]3(C)CCC4(CO)[C@@H]5CC(C)(C)C(=O)C[C@]5(C)CC[C@]4(C)C3CC[C@@]21C (some centres undefined),T/C,"dose: 7.75 mg/kg/injection, schedule: Q01DX005 (ip), vehicle: Klucel (hydroxypropylcellulose) (HPC)",98 % of control
same,T/C,"dose: 15.5 mg/kg/injection, schedule: Q01DX005 (ip), vehicle: Klucel (hydroxypropylcellulose) (HPC)",91 % of control
same,T/C,"dose: 31.0 mg/kg/injection, schedule: Q01DX005 (ip), vehicle: Klucel (hydroxypropylcellulose) (HPC)",89 % of control
COc1cc2c(cc1OC)CN(C)C(C)C2 (centres undefined),T/C,"dose: 12.5 mg/kg/injection, schedule: Q01DX005 (ip), vehicle: saline",101 % of control
same,T/C,"dose: 25.0 mg/kg/injection, schedule: Q01DX005 (ip), vehicle: saline",106 % of control
same,T/C,"dose: 50.0 mg/kg/injection, schedule: Q01DX005 (ip), vehicle: saline",109 % of control and 97 % of control
C=C1C(=O)O[C@H]2[C@H]1[C@H](OC(=O)/C(C)=C\C)CC(=C)[C@@H]1[C@H](O)[C@H]3O[C@@]3(C)[C@@]12O,T/C,"dose: 6.25 mg/kg/injection, schedule: Q01DX009 (ip), vehicle: saline",102 % of control
same,T/C,"dose: 12.5 mg/kg/injection, schedule: Q01DX009 (ip), vehicle: saline",106 % of control and 111 % of control
same,T/C,"dose: 25.0 mg/kg/injection, schedule: Q01DX009 (ip), vehicle: saline",112 % of control and 113 % of control
same,T/C,[5],121 % of control
same,T/C,[6],109 % of control
CC1(C)CC(C)(OC(=O)c2ccc(Cl)cc2)N=N1 (centres undefined),T/C,[3],104 % of control
same,T/C,[7],103 % of control
same,T/C,[8],99 % of control
same,T/C,"dose: 100.0 mg/kg/injection, schedule: Q01DX009 (ip), vehicle: saline with Tween-80",99 % of control
same,T/C,"dose: 200.0 mg/kg/injection, schedule: Q01DX009 (ip), vehicle: saline with Tween-80",98 % of control
COc1cc2c(cc1OC)C(C)=NCC2,T/C,"dose: 25.0 mg/kg/injection, schedule: Q01DX001 (ip), vehicle: saline",104 % of control
same,T/C,"dose: 50.0 mg/kg/injection, schedule: Q01DX001 (ip), vehicle: saline",95 % of control
same,T/C,"dose: 100.0 mg/kg/injection, schedule: Q01DX001 (ip), vehicle: saline",94 % of control
same,T/C,"dose: 200.0 mg/kg/injection, schedule: Q01DX001 (ip), vehicle: saline",98 % of control
CC(=O)Nc1ccc(C)c2ccccc12,T/C,"dose: 75.0 mg/kg/injection, schedule: Q04DX003 (ip), vehicle: saline with Tween-80",100 % of control
same,T/C,"dose: 150.0 mg/kg/injection, schedule: Q04DX003 (ip), vehicle: saline with Tween-80",104 % of control
same,T/C,"dose: 300.0 mg/kg/injection, schedule: Q04DX003 (ip), vehicle: saline with Tween-80",108 % of control
Cc1cc(C)cc([C@H](C)N=Cc2cc(Br)ccc2O)c1,T/C,"dose: 100.0 mg/kg/injection, schedule: Q04DX002 (ip), vehicle: saline with Tween-80",100 % of control
same,T/C,"dose: 200.0 mg/kg/injection, schedule: Q04DX002 (ip), vehicle: saline with Tween-80",100 % of control
same,T/C,"dose: 400.0 mg/kg/injection, schedule: Q04DX002 (ip), vehicle: saline with Tween-80",108 % of control
COc1ccc2nc(Cl)c(CBr)c(CBr)c2c1,T/C,"dose: 12.5 mg/kg/injection, schedule: Q01DX005 (ip), vehicle: Klucel (hydroxypropylcellulose) (HPC)",98 % of control
same,T/C,[9],117 % of control
Cc1cc2nc(Nc3nc(C)c(C)c(=O)[nH]3)[nH]c2cc1C,T/C,[5],108 % of control
same,T/C,[6],102 % of control
same,T/C,"dose: 200.0 mg/kg/injection, schedule: Q01DX009 (ip), vehicle: saline",90 % of control
O=C1CN(c2ccccc2)CC(=O)N2CCCN12,T/C,[10],100 % of control
same,T/C,[11],96 % of control
same,T/C,[12],100 % of control
Cc1[nH]c2ccc(N(C)C)cc2c(=O)c1CNCc1ccccc1,T/C,"dose: 1.56 mg/kg/injection, schedule: Q01DX009 (ip), vehicle: saline with Tween-80",114 % of control
same,T/C,[1],107 % of control
same,T/C,[2],103 % of control and 96 % of control
CC(=O)O.CC(=O)O.[Co+2].[NH-]C(CCC(N)=O)C(=O)O.[NH-]C(CCC(N)=O)C(=O)O (centres undefined),T/C,[8],98 % of control
CCCCCCCCC1OC1CCCCCCCC(=O)O (centres undefined),T/C,[1],112 % of control
same,T/C,[2],100 % of control
same,T/C,[3],103 % of control
same,T/C,[7],95 % of control
CC(O)c1cc2c(cc1I)OCO2 (centres undefined),T/C,"dose: 100.0 mg/kg/injection, schedule: Q01DX001 (ip), vehicle: Klucel (hydroxypropylcellulose) (HPC)",106 % of control
same,T/C,"dose: 200.0 mg/kg/injection, schedule: Q01DX001 (ip), vehicle: Klucel (hydroxypropylcellulose) (HPC)",108 % of control
same,T/C,"dose: 400.0 mg/kg/injection, schedule: Q01DX001 (ip), vehicle: Klucel (hydroxypropylcellulose) (HPC)",107 % of control
c1ccc2cc3n[se]nc3cc2c1,T/C,[13],100 % of control
same,T/C,[14],90 % of control
CCOC(=O)/C(N=Nc1ccccc1Cl)=C(\C)O,T/C,[9],101 % of control
same,T/C,[15],101 % of control
same,T/C,[16],101 % of control
O=c1[nH]cnc2cc(N3CCOCC3)c([N+](=O)[O-])cc12,T/C,[4],105 % of control
same,T/C,"dose: 100.0 mg/kg/injection, schedule: Q04DX003 (ip), vehicle: saline with Tween-80",100 % of control
same,T/C,"dose: 200.0 mg/kg/injection, schedule: Q04DX003 (ip), vehicle: saline with Tween-80",100 % of control
Cc1ccc(S(=O)(=O)C(CCS(C)(=O)=O)C(=O)c2ccccc2)cc1 (centres undefined),T/C,[13],100 % of control and 93 % of control
same,T/C,[14],92 % of control
same,T/C,"dose: 240.0 mg/kg/injection, schedule: Q01DX005 (ip), vehicle: saline with Tween-80",88 % of control and 90 % of control and 91 % of control
CCC(=O)N/C(N)=N\C(N)=S,T/C,[9],101 % of control
same,T/C,[15],96 % of control
same,T/C,[16],104 % of control
COC(=O)NC1=CCC(C(C)(C)C)CC1 (centres undefined),T/C,"dose: 25.0 mg/kg/injection, schedule: Q01DX005 (ip), vehicle: Klucel (hydroxypropylcellulose) (HPC)",108 % of control
same,T/C,[9],113 % of control
same,T/C,[15],106 % of control
same,T/C,[16],103 % of control
COc1ccc(NCc2ccc(C)cc2)cc1,T/C,"dose: 100.0 mg/kg/injection, schedule: Q01DX001 (ip), vehicle: saline with Tween-80",100 % of control
same,T/C,"dose: 200.0 mg/kg/injection, schedule: Q01DX001 (ip), vehicle: saline with Tween-80",108 % of control
same,T/C,"dose: 400.0 mg/kg/injection, schedule: Q01DX001 (ip), vehicle: saline with Tween-80",107 % of control
CNC(=O)CCCCCNC(C)=O,T/C,[9],98 % of control
same,T/C,[15],95 % of control
same,T/C,[16],90 % of control
same,T/C,"dose: 400.0 mg/kg/injection, schedule: Q01DX005 (ip), vehicle: Klucel (hydroxypropylcellulose) (HPC)",97 % of control
CC(C)CC(NC(=O)C(C)N)C(=O)OC(C)(C)C (centres undefined),T/C,[12],101 % of control
same,T/C,"dose: 100.0 mg/kg/injection, schedule: Q01DX005 (ip), vehicle: saline with Tween-80",102 % of control
same,T/C,"dose: 200.0 mg/kg/injection, schedule: Q01DX005 (ip), vehicle: saline with Tween-80",96 % of control
CCCCC1CCCCCCc2[nH]c(/C=C3\N=C(c4ccc[nH]4)C=C3OC)cc21 (centres undefined),T/C,"dose: 0.12 mg/kg/injection, schedule: Q01DX009 (ip), vehicle: saline with Tween-80",109 % of control and 116 % of control
same,T/C,"dose: 0.25 mg/kg/injection, schedule: Q01DX009 (ip), vehicle: saline with Tween-80",110 % of control and 119 % of control
same,T/C,"dose: 0.5 mg/kg/injection, schedule: Q01DX009 (ip), vehicle: saline with Tween-80",115 % of control and 123 % of control
same,T/C,"dose: 1.0 mg/kg/injection, schedule: Q01DX009 (ip), vehicle: saline with Tween-80",111 % of control and 90 % of control
COc1ccc(CC2=CC(=O)C(C)=CC2=O)cc1,T/C,"dose: 6.25 mg/kg/injection, schedule: Q01DX005 (ip), vehicle: saline with Tween-80",98 % of control
same,T/C,[10],91 % of control
same,T/C,[11],97 % of control
CN(C)CCSC(=O)N1c2ccccc2C(C)(C)c2ccccc21,T/C,[5],102 % of control
same,T/C,[6],103 % of control
